Experimental data from the supplement of paper PMC10307832.

Columns and labels:
Assay in all cases: relative viability (nuclei count vs DMSO), 5 days (fraction); higher = more cells survive
DM3189 + Trametinib = compound: C1CN(CCN1)C2=CC=C(C=C2)C3=CN4C(=C(C=N4)C5=CC=NC6=CC=CC=C56)N=C3 [DM3189] + CC(=O)Nc1cccc(-n2c(=O)n(C3CC3)c(=O)c3c(Nc4ccc(I)cc4F)n(C)c(=O)c(C)c32)c1 [Trametinib] (partner 0.02 µM)
Summary of the method: (§1)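 Lung cancer cell lines were seeded in 1536-well plates and dosed by pin tool the next day, with either a single drug or a fixed anchor-drug dose combined with five library-drug doses (not always all listed) spaced in √10 steps. Five days later, one step fixed the cells and stained their nuclei (final 0.05% Triton X-100, 1% formaldehyde, 1 ug/ml Hoechst), and nuclei were counted on 4× images. Relative viability is the nuclei count in treated wells divided by the count in vehicle wells, and each value is the median of duplicate plates.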

DM3189 + AZD7762 = compound: C1CN(CCN1)C2=CC=C(C=C2)C3=CN4C(=C(C=N4)C5=CC=NC6=CC=CC=C56)N=C3 [DM3189] + NC(=O)Nc1cc(-c2cccc(F)c2)sc1C(=O)N[C@H]1CCCNC1 [AZD7762] (partner 0.2 µM)
Summary of the method: as §1

DM3189 + OSI-027 = compound: C1CN(CCN1)C2=CC=C(C=C2)C3=CN4C(=C(C=N4)C5=CC=NC6=CC=CC=C56)N=C3 [DM3189] + COc1cccc2cc(-c3nc([C@H]4CC[C@H](C(=O)O)CC4)n4ncnc(N)c34)[nH]c12 [OSI-027] (partner 0.5 µM)
Summary of the method: as §1

DM3189 + Pemetrexed = compound: C1CN(CCN1)C2=CC=C(C=C2)C3=CN4C(=C(C=N4)C5=CC=NC6=CC=CC=C56)N=C3 [DM3189] + Nc1nc2[nH]cc(CCc3ccc(C(=O)N[C@@H](CCC(=O)O)C(=O)O)cc3)c2c(=O)[nH]1 [Pemetrexed] (partner 0.2 µM)
Summary of the method: as §1

DM3189 + Olaparib = compound: C1CN(CCN1)C2=CC=C(C=C2)C3=CN4C(=C(C=N4)C5=CC=NC6=CC=CC=C56)N=C3 [DM3189] + O=C(c1cc(Cc2n[nH]c(=O)c3ccccc23)ccc1F)N1CCN(C(=O)C2CC2)CC1 [Olaparib] (partner 8 µM)
Summary of the method: as §1

DM3189 + Decitabine = compound: C1CN(CCN1)C2=CC=C(C=C2)C3=CN4C(=C(C=N4)C5=CC=NC6=CC=CC=C56)N=C3 [DM3189] + Nc1ncn([C@H]2C[C@H](O)[C@@H](CO)O2)c(=O)n1 [Decitabine] (partner 2 µM)
Summary of the method: as §1

DM3189 + Palbociclib = compound: C1CN(CCN1)C2=CC=C(C=C2)C3=CN4C(=C(C=N4)C5=CC=NC6=CC=CC=C56)N=C3 [DM3189] + CC(=O)c1c(C)c2cnc(Nc3ccc(N4CCNCC4)cn3)nc2n(C2CCCC2)c1=O [Palbociclib] (partner 0.5 µM)
Summary of the method: as §1

DM3189 + Vorinostat = compound: C1CN(CCN1)C2=CC=C(C=C2)C3=CN4C(=C(C=N4)C5=CC=NC6=CC=CC=C56)N=C3 [DM3189] + O=C(CCCCCCC(=O)Nc1ccccc1)NO [Vorinostat] (partner 1 µM)
Summary of the method: as §1

DM3189 + Tozasertib = compound: C1CN(CCN1)C2=CC=C(C=C2)C3=CN4C(=C(C=N4)C5=CC=NC6=CC=CC=C56)N=C3 [DM3189] + Cc1cc(Nc2cc(N3CCN(C)CC3)nc(Sc3ccc(NC(=O)C4CC4)cc3)n2)n[nH]1 [Tozasertib] (partner 0.1 µM)
Summary of the method: as §1

DM3189 = compound: C1CN(CCN1)C2=CC=C(C=C2)C3=CN4C(=C(C=N4)C5=CC=NC6=CC=CC=C56)N=C3 [DM3189]
Summary of the method: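 Vehicle-anchored 1536-well plates of lung cancer cell lines, held overnight at 37 °C, were pinned with five library-drug doses (not always all listed) spaced by √10. No medium change followed over the next 5 days, after which the cells were fixed, permeabilised and Hoechst-stained together and imaged at 4×. Nuclei were counted with MetaXpress, and viability is treated-well nuclei over vehicle-well nuclei, taken as a median across plates. Plates passed with control CV below 25% and at least one doubling.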

DM3189 + Pictilisib = compound: C1CN(CCN1)C2=CC=C(C=C2)C3=CN4C(=C(C=N4)C5=CC=NC6=CC=CC=C56)N=C3 [DM3189] + CS(=O)(=O)N1CCN(Cc2cc3nc(-c4cccc5[nH]ncc45)nc(N4CCOCC4)c3s2)CC1 [Pictilisib] (partner 1 µM)
Summary of the method: as §1

DM3189 + Lapatinib = compound: C1CN(CCN1)C2=CC=C(C=C2)C3=CN4C(=C(C=N4)C5=CC=NC6=CC=CC=C56)N=C3 [DM3189] + CS(=O)(=O)CCNCc1ccc(-c2ccc3ncnc(Nc4ccc(OCc5cccc(F)c5)c(Cl)c4)c3c2)o1 [Lapatinib] (partner 2 µM)
Summary of the method: as §1

DM3189 + Foretinib = compound: C1CN(CCN1)C2=CC=C(C=C2)C3=CN4C(=C(C=N4)C5=CC=NC6=CC=CC=C56)N=C3 [DM3189] + COc1cc2c(Oc3ccc(NC(=O)C4(C(=O)Nc5ccc(F)cc5)CC4)cc3F)ccnc2cc1OCCCN1CCOCC1 [Foretinib] (partner 0.25 µM)
Summary of the method: as §1

DM3189 + Bortezomib = compound: C1CN(CCN1)C2=CC=C(C=C2)C3=CN4C(=C(C=N4)C5=CC=NC6=CC=CC=C56)N=C3 [DM3189] + CC(C)C[C@H](NC(=O)[C@H](Cc1ccccc1)NC(=O)c1cnccn1)B(O)O [Bortezomib] (partner 0.002 µM)
Summary of the method: as §1

DM3189 + Linsitinib = compound: C1CN(CCN1)C2=CC=C(C=C2)C3=CN4C(=C(C=N4)C5=CC=NC6=CC=CC=C56)N=C3 [DM3189] + C[C@]1(O)C[C@@H](c2nc(-c3ccc4ccc(-c5ccccc5)nc4c3)c3c(N)nccn32)C1 [Linsitinib] (partner 1 µM)
Summary of the method: as §1

DM3189 + Navitoclax = compound: C1CN(CCN1)C2=CC=C(C=C2)C3=CN4C(=C(C=N4)C5=CC=NC6=CC=CC=C56)N=C3 [DM3189] + CC1(C)CCC(c2ccc(Cl)cc2)=C(CN2CCN(c3ccc(C(=O)NS(=O)(=O)c4ccc(N[C@H](CCN5CCOCC5)CSc5ccccc5)c(S(=O)(=O)C(F)(F)F)c4)cc3)CC2)C1 [Navitoclax] (partner 0.5 µM)
Summary of the method: as §1

DM3189 + Alpelisib = compound: C1CN(CCN1)C2=CC=C(C=C2)C3=CN4C(=C(C=N4)C5=CC=NC6=CC=CC=C56)N=C3 [DM3189] + Cc1nc(NC(=O)N2CCC[C@H]2C(N)=O)sc1-c1ccnc(C(C)(C)C(F)(F)F)c1 [Alpelisib] (partner 2 µM)
Summary of the method: as §1

DM3189 + Crizotinib = compound: C1CN(CCN1)C2=CC=C(C=C2)C3=CN4C(=C(C=N4)C5=CC=NC6=CC=CC=C56)N=C3 [DM3189] + C[C@@H](Oc1cc(-c2cnn(C3CCNCC3)c2)cnc1N)c1c(Cl)ccc(F)c1Cl [Crizotinib] (partner 1 µM)
Summary of the method: as §1

For NCI-H1648, the relative viability (DM3189 + Trametinib; first compound 0.08 µM) was 0.434, the relative viability (DM3189 + Trametinib; first compound 0.253 µM) was 0.51 and the relative viability (DM3189 + Trametinib; first compound 0.8 µM) was 0.61. The relative viability (DM3189 + Trametinib; first compound 2.53 µM) was 0.671, the relative viability (DM3189 + AZD7762; first compound 0.08 µM) was 0.681 and the relative viability (DM3189 + AZD7762; first compound 0.253 µM) was 0.592. The relative viability (DM3189 + AZD7762; first compound 0.8 µM) was 0.562, the relative viability (DM3189 + AZD7762; first compound 2.53 µM) was 0.576 and the relative viability (DM3189 + OSI-027; first compound 0.253 µM) was 0.272. The relative viability (DM3189 + OSI-027; first compound 0.8 µM) was 0.227, the relative viability (DM3189 + OSI-027; first compound 2.53 µM) was 0.28 and the relative viability (DM3189 + Pemetrexed; first compound 0.08 µM) was 0.893. The relative viability (DM3189 + Pemetrexed; first compound 0.253 µM) was 0.615, the relative viability (DM3189 + Pemetrexed; first compound 0.8 µM) was 0.596 and the relative viability (DM3189 + Pemetrexed; first compound 2.53 µM) was 0.577. For the same cell line, the relative viability (DM3189 + Olaparib; first compound 0.08 µM) was 1.16, the relative viability (DM3189 + Olaparib; first compound 0.253 µM) was 0.881 and the relative viability (DM3189 + Olaparib; first compound 0.8 µM) was 0.749. It also gave a relative viability (DM3189 + Olaparib; first compound 2.53 µM) of 0.862, a relative viability (DM3189 + Decitabine; first compound 0.08 µM) of 0.631 and a relative viability (DM3189 + Decitabine; first compound 0.253 µM) of 0.53. For the same cell line, the relative viability (DM3189 + Decitabine; first compound 0.8 µM) was 0.462, the relative viability (DM3189 + Decitabine; first compound 2.53 µM) was 0.438 and the relative viability (DM3189 + Palbociclib; first compound 0.08 µM) was 0.274. It also gave a relative viability (DM3189 + Palbociclib; first compound 0.253 µM) of 0.226, a relative viability (DM3189 + Palbociclib; first compound 0.8 µM) of 0.271 and a relative viability (DM3189 + Palbociclib; first compound 2.53 µM) of 0.364. It also gave a relative viability (DM3189 + Vorinostat; first compound 0.08 µM) of 0.453, a relative viability (DM3189 + Vorinostat; first compound 0.253 µM) of 0.637 and a relative viability (DM3189 + Vorinostat; first compound 0.8 µM) of 0.421. It also gave a relative viability (DM3189 + Vorinostat; first compound 2.53 µM) of 0.391, a relative viability (DM3189 + Tozasertib; first compound 0.253 µM) of 0.565 and a relative viability (DM3189 + Tozasertib; first compound 0.8 µM) of 0.39. The relative viability (DM3189 + Tozasertib; first compound 2.53 µM) was 0.464, the relative viability (DM3189; 0.08 µM) was 0.798 and the relative viability (DM3189; 0.253 µM) was 0.947. It also gave a relative viability (DM3189; 0.8 µM) of 0.962 and a relative viability (DM3189; 2.53 µM) of 0.661.
In the case of EBC-1, the relative viability (DM3189 + Pictilisib; first compound 0.08 µM) is reported as 0.419, the relative viability (DM3189 + Pictilisib; first compound 0.253 µM) is reported as 0.435 and the relative viability (DM3189 + Pictilisib; first compound 0.8 µM) is reported as 0.344. It also gave a relative viability (DM3189 + Pictilisib; first compound 2.53 µM) of 0.285, a relative viability (DM3189 + Lapatinib; first compound 0.08 µM) of 0.228 and a relative viability (DM3189 + Lapatinib; first compound 0.253 µM) of 0.214. The relative viability (DM3189 + Lapatinib; first compound 0.8 µM) was 0.214, the relative viability (DM3189 + Lapatinib; first compound 2.53 µM) was 0.2 and the relative viability (DM3189 + Foretinib; first compound 0.08 µM) was 0.11. For the same cell line, the relative viability (DM3189 + Foretinib; first compound 0.253 µM) was 0.106, the relative viability (DM3189 + Foretinib; first compound 0.8 µM) was 0.0886 and the relative viability (DM3189 + Foretinib; first compound 2.53 µM) was 0.0977. The relative viability (DM3189 + Bortezomib; first compound 0.08 µM) was 0.63, the relative viability (DM3189 + Bortezomib; first compound 0.253 µM) was 0.611 and the relative viability (DM3189 + Bortezomib; first compound 0.8 µM) was 0.483. It also gave a relative viability (DM3189 + Bortezomib; first compound 2.53 µM) of 0.551, a relative viability (DM3189 + Linsitinib; first compound 0.08 µM) of 0.993 and a relative viability (DM3189 + Linsitinib; first compound 0.253 µM) of 0.965. The relative viability (DM3189 + Linsitinib; first compound 0.8 µM) was 0.869, the relative viability (DM3189 + Linsitinib; first compound 2.53 µM) was 1.06 and the relative viability (DM3189 + Olaparib; first compound 0.08 µM) was 0.858. For the same cell line, the relative viability (DM3189 + Olaparib; first compound 0.253 µM) was 0.778, the relative viability (DM3189 + Olaparib; first compound 0.8 µM) was 0.71 and the relative viability (DM3189 + Olaparib; first compound 2.53 µM) was 0.673. It also gave a relative viability (DM3189 + Navitoclax; first compound 0.08 µM) of 0.48, a relative viability (DM3189 + Navitoclax; first compound 0.253 µM) of 0.356 and a relative viability (DM3189 + Navitoclax; first compound 0.8 µM) of 0.478. For the same cell line, the relative viability (DM3189 + Navitoclax; first compound 2.53 µM) was 0.391, the relative viability (DM3189 + Alpelisib; first compound 0.08 µM) was 0.864 and the relative viability (DM3189 + Alpelisib; first compound 0.253 µM) was 0.759. The relative viability (DM3189 + Alpelisib; first compound 0.8 µM) was 0.817, the relative viability (DM3189 + Alpelisib; first compound 2.53 µM) was 0.985 and the relative viability (DM3189 + Crizotinib; first compound 0.08 µM) was 0.196. For the same cell line, the relative viability (DM3189 + Crizotinib; first compound 0.253 µM) was 0.183, the relative viability (DM3189 + Crizotinib; first compound 0.8 µM) was 0.164 and the relative viability (DM3189 + Crizotinib; first compound 2.53 µM) was 0.179. It also gave a relative viability (DM3189; 0.08 µM) of 0.974, a relative viability (DM3189; 0.253 µM) of 0.989 and a relative viability (DM3189; 0.8 µM) of 0.963. For the same cell line, the relative viability (DM3189; 2.53 µM) was 1.07.
